Like-named read-outs stand apart in the source and are kept apart here.
How the values were obtained:
hSERT Ile425Val (I425V) = target: T1, hSERT Ile425Val (I425V) (Homo sapiens, UniProt P31645, I425V); experiment: [3H]5-HT transport (SERT uptake) assay in transfected HeLa cells; assay type: cell-based
T1 construct: The full-length cDNA encoding hSERT in the mammalian expression vector pcDNA3.1; expressed in transfected cells; host or cells: HeLa
Method: (§1) Transfection and Transport Studies. HeLa cells, maintained at 37° C. in a 5% CO2 humidified incubator, were grown in complete medium (Dulbecco's Modified Eagle's Medium (DMEM, Invitrogen), 10% fetal bovine serum, 2 mM L-glutamine, 100 units/ml penicillin, and 100 μg/ml streptomycin).
(§2) Transport, Binding, Biotinylation and Phosphorylation Studies. […] To establish levels and biosynthetic progression of hSERT protein produced from mutant cDNAs, HeLa cells were plated in 6-well dishes at 500,000 cells per well and transfected 12 h later. Twenty four hours after transfection, whole cell detergent extracts were blotted for hSERT (mAb Technologies, Inc., 1:1000) using enhanced chemiluminescence (ECL, Amersham) detection.

hSERT [1] = target: T2, hSERT (Homo sapiens, UniProt P31645); experiment: as above; assay type: cell-based
T2 construct: The full-length cDNA encoding hSERT in the mammalian expression vector pcDNA3.1; expressed in transfected cells; host or cells: HeLa
Method: as §1, §2

[2] = test system: rat SERT expressed by RBL-2H3 cells; experiment: [3H]5-HT transport assay in RBL-2H3 cells; assay type: cell-based; conditions: for blockade of NECA-induced 5-HT uptake: ODQ 10 μm, NECA 1 μm; for blockade of 8-Br-cGMP stimulation of SERT: data not shown
hSERT Pro339Leu (P339L) = hSERT Pro339Leu (P339L) (Homo sapiens, UniProt P31645, P339L)
Method: as §1, §2

[3] = target: T3, native SERT in RN46A cells (Rattus norvegicus, UniProt P31652); experiment: [3H]5-HT transport assay in RN46A cells; assay type: cell-based; conditions: for blockade of anisomycin-stimulated 5-HT uptake: SB203580, ODQ 10 μm, H8 0.1 μm
T3 construct: derived from rat E13 raphenucleus, that expresses native SERT; endogenous in cells; host or cells: RN46A cells
T3 sequence (P31652 whole entry): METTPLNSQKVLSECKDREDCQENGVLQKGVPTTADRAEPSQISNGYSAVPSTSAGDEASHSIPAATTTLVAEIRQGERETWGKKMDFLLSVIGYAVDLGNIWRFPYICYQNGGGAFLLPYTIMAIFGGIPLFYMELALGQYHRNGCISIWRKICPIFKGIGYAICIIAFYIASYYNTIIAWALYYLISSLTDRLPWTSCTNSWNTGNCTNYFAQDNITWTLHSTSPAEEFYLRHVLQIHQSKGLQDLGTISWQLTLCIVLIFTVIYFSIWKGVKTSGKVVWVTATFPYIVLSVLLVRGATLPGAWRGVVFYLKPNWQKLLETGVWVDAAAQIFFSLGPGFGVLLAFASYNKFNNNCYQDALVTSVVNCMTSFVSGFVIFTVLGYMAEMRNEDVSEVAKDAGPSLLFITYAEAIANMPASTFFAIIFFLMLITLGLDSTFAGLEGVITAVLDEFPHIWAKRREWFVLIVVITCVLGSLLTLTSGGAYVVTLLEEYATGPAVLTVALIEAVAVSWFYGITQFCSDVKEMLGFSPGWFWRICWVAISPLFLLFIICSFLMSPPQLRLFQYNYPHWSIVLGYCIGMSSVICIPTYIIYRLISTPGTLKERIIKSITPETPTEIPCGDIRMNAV

hSERT [4] = target: T2, hSERT; experiment: [125I]RTI-55 binding to intact transfected HeLa cells (surface and total SERT); assay type: cell-based; conditions: paroxetine as displacer; data not shown
[5] = test system: five hSERT variants that failed to elicit uptake increases; experiment: [125I]RTI-55 surface binding to intact transfected HeLa cells, non-responsive variants; assay type: cell-based, human; conditions: H8
[6] = test system: lymphocytes homozygous for the Gly variant (hSERT Gly56); experiment: 5-HT uptake in genotyped lymphocyte lines; assay type: cell-based, human; conditions: H8 versus 8BrcGMP; SB203580 versus anisomycin
Text: Genotyping and Lymphocyte Studies. Lymphocyte lines were derived from autistic pedigrees recruited by Susan E. Folstein (Johns Hopkins Univ), from the Autism Genetics Resource Exchange (AGRE) collection (www.agre.org/), and from the NIMH Human Genetics Initiative Repository (www.nimhgenetics.org/) at Rutgers University. DNA from lymphoblastoid cell lines was genotyped via TaqMan-based allelic discrimination, using an Applied Biosystems (Foster City, Calif.) Assay-by-Design and independently confirmed by PCR and direct sequence analysis. […] Lymphocyte were pelleted at 1500 rpm, 5 min and washed with KRH assay buffer. A total of 1×10^6 cells in triplicate were pre-warmed (37° C.) in a shaking water bath (10 min) in 12×75 polypropylene tubes in KRH buffer containing 100 μM pargyline and 100 μM ascorbic acid+/−modifiers.

[7] = test system: rat SERT expressed by RBL-2H3 cells; conditions: Zhu et al., 2004a,b; cited from earlier work
SERT in RBL-2H3 cells = target: T4, SERT in RBL-2H3 cells (Rattus norvegicus, UniProt P31652); experiment: [125I]RTI-55 binding to intact RBL-2H3 cells; assay type: cell-based; conditions: for SERT surface density (5-HT-displaceable [125I]RTI-55 binding): anisomycin 1 μm, fostriecin 5 nM, NECA 1 μm, 10 min
T4 construct: As with rat SERT expressed by RBL-2H3 cells; host or cells: RBL-2H3 cells (intact cells, 4° C.)
T4 sequence (P31652 whole entry): as above
Text: Binding was terminated by two rapid washes with ice-cold PBS/CM.

p38 MAPK = assay type: cell-based, rat
Method: Assays of p38 MAPK Activation. […] Medium was removed by aspiration, and cells were washed once with KRH buffer and then incubated in triplicate at 37° C. in KRH buffer with or without p38 MAPK activators for 5-10 min. Assay buffer was removed, and cells were immediately fixed with fresh 4% formaldehyde (Sigma) in PBS for 20 min at room temperature and washed four times with 1×PBS containing 0.1% Triton X-100 (Sigma) (5 min per wash) prior to 1 h of blocking with Odyssey blocking buffer (Li-Cor Biosciences, Lincoln, Nebr.). RBL-2H3 cells were subsequently probed with dual phosphorylated (Thr(P) and Tyr(P)) p38 MAPK polyclonal antibody (Cell Signaling; 1:400) in Odyssey blocking buffer with gentle mixing for 2 h at room temperature. Cells were then washed four times with 1×PBS containing 0.1% Tween 20 (Sigma) for 5 min. Bound antibody was detected with fluorescence-labeled secondary antibody-Alexa Fluor® 680 (avoiding exposure to light; 1:200 in Odyssey Blocking Buffer, Molecular Probes, Inc., Eugene, Oreg.) for 1 h. After four washes with 1×PBS, 0.1% Tween 20, the plate was scanned, and the captured image of the signal was processed and quantified with the Odyssey™ Infrared Imaging System (Li-Cor Biosciences). For UV radiation to activate p38 MAPK, plates seeded with cells were placed in a UV source (UV Stratalinker 1800, Stratagene, La Jolla, Calif.) that was preset to deliver 4×10^4 μJ/cm^2 at room temperature.

human NET = experiment: monoamine uptake assay in transfected CHO cells; assay type: cell-based; conditions: SB203580 preincubation 15 min
Method: Cell Culture and Transfection. […] CHO cells (ATCC, Manassas, Va.) were maintained at 37° C. in Dulbecco's MEM containing 10% fetal bovine serum, 1% L-Glu, 100 IU/ml penicillin, and 100 μg/ml streptomycin. For comparison of the response of monoamine transporters to p38 MAPK activation, CHO cells were transfected with cDNAs for hSERT, hDAT, or hNET (100 ng/well for a 24-well plate). Transfections of CHO cells were performed using TransIT-LT1 Transfection Reagent (Mirus, Madison, Wis.) according to the manufacturer's protocol (0.3 μl/well). hSERT, hDAT, or hNET cDNAs were preincubated with the reagent at ambient temperature for 30 min before being added to plated CHO cells. Cells were cultured for 24 h after transfection. The transfection mixture was removed just prior to assay.
CHO cells were plated at 20,000 cells/well 16-24 h before transfection, and the uptake assay was performed 24 h following the transfection. […] Medium was removed by aspiration, and cells were washed once with Krebs-Ringer HEPES (KRH) buffer containing 130 mM NaCl, 1.3 mM KCl, 2.2 mM CaCl2, 1.2 mM MgSO4, 1.2 mM KH2PO4, 1.8 g/liter glucose, 10 mM HEPES, pH 7.4. […] Cells were solubilized with 0.5 ml of Microscint 20 (PerkinElmer Life Sciences), and tritium-labeled monoamine accumulation was quantitated using a TopCount plate scintillation counter (PerkinElmer Life Sciences).

[8] = pretreatment, then anisomycin 1 μm 10 min, SB compounds, curcumin, PD98059, ODQ 10 μm, H8 0.1 μm, DT-2 1.0 μm, fostriecin 5 nM, MTSET 10 mM, siRNA 100 nM 48 h

## NCCc1c[nH]c2ccc(O)cc12 [5-HT, 5-hydroxytryptamine]
hSERT Ile425Val (I425V)
  5-HT Vmax: 190+/−28 % of hSERT
hSERT Ile425Val (I425V); saturation kinetics
  5-HT Vmax: 789.5+28 fmol/well/min
hSERT [1]; saturation kinetics, hSERT
  5-HT Vmax: 416.2+19 fmol/well/min
[2]; read-out: SERT Km for 5-HT, RBL-2H3, vehicle
  Km: 1.06 ± 0.145 µM
hSERT Pro339Leu (P339L)
  5-HT Vmax: 3.0+/−1.2 % of hSERT
hSERT Pro339Leu (P339L); saturation kinetics
  5-HT Vmax: 1.2 ± 0.11 fmol/well/min
[3]; read-out: SERT Km for 5-HT, RN46A, vehicle
  Km: 0.799 ± 0.097 µM

## OO [H2O2, hydrogen peroxide]
[2]
  stimulation of 5-HT transport activity: stimulated 5-HT transport to a level comparable with 1 μm anisomycin

## CNCCNS(=O)(=O)c1cccc2cnccc12 [H8, N-[2-(methylamino)ethy]-5-isoquinoline sulfonamide]
hSERT [1]
  antagonism of 8BrcGMP stimulation of 5-HT transport: completely antagonized
[2]; H8 0.1 μm, DT-2 1.0 μm
  blockade of NECA-induced 5-HT uptake: abolish
[2]
  blockade of 8-Br-cGMP stimulation of SERT: blocked
[2]; [8]
  blockade of anisomycin-stimulated 5-HT uptake / SERT activity: failed to attenuate
hSERT [4]
  total [125I]RTI-55 binding: no effects on total binding
[5]
  blockade of 8BrcGMP-induced reduction in surface density: completely blocked
[3]; RN46A, DT-2 1.0 μm
  blockade of anisomycin-stimulated 5-HT uptake: failed to attenuate
[6]
  antagonist sensitivity of stimulated 5-HT transport: sensitive to H8

## O=C1C(Nc2ccccc2)=CC(=O)c2ncccc21 [LY83583]
[2]; [8]
  blockade of anisomycin-stimulated 5-HT uptake / SERT activity: neither agent attenuated anisomycin stimulation
[7]
  blockade of AR stimulation of SERT: completely abolished
[3]; RN46A, DT-2 1.0 μm
  blockade of anisomycin-stimulated 5-HT uptake: neither agent attenuated anisomycin stimulation

## C[N+](C)(C)CCSS(C)(=O)=O [MTSET, [2-(Trimethylammonium)ethyl]methanethiosulfonate]
[2]
  blockade of anisomycin-stimulated 5-HT uptake / SERT activity: abolished

## CCNC(=O)[C@H]1O[C@@H](n2cnc3c(N)ncnc32)[C@H](O)[C@@H]1O [NECA]
SERT in RBL-2H3 cells; acute treatment
  total SERT (paroxetine-displaceable [125I]RTI-55 binding): does not change
SERT in RBL-2H3 cells
  SERT surface density (5-HT-displaceable [125I]RTI-55 binding): significant increase
p38 MAPK; 5 min treatment
  level of p38 MAPK phosphorylation stimulation: comparable to stimulation achieved with 8-bromo-cGMP
p38 MAPK; data not shown
  total p38 MAPK levels: No changes

## O=c1onc2cnc3ccccc3n12 [ODQ, 1H-(1,2,4)-oxadiazolo[4,3-a]quinoxalin-1-one]
[2]
  blockade of anisomycin-stimulated 5-HT uptake / SERT activity: neither agent attenuated anisomycin stimulation
[2]; H8 0.1 μm, DT-2 1.0 μm
  blockade of NECA-induced 5-HT uptake: abolish
[7]
  blockade of AR stimulation of SERT: completely abolished
[3]; RN46A, DT-2 1.0 μm
  blockade of anisomycin-stimulated 5-HT uptake: neither agent attenuated anisomycin stimulation

## COc1cccc(-c2cc(=O)c3ccccc3o2)c1N [PD98059]
[2]
  blockade of anisomycin-stimulated 5-HT uptake / SERT activity: failed to block

## Oc1ccc(-c2nc(-c3ccc(F)cc3)c(-c3ccncc3)[nH]2)cc1 [SB202190]
[2]
  blockade of anisomycin-stimulated 5-HT uptake / SERT activity: blocked anisomycin stimulation of SERT

## CCc1nc(-c2ccc(OC)cc2)[nH]c1-c1ccncc1 [SB202474]
[2]
  blockade of anisomycin-stimulated 5-HT uptake / SERT activity: lacked antagonistic activity

## C[S+]([O-])c1ccc(-c2nc(-c3ccc(F)cc3)c(-c3ccncc3)[nH]2)cc1 (stereo not shown) [SB203580]
Human NET
  blockade of anisomycin stimulation of NET: blocking stimulation back to basal levels

## COC[C@@H]([C@H](O)[C@H](O)C(=O)NCC[C@H](C)c1nc(/C=C/C[C@@H]2O[C@]3(C[C@@H](O)[C@@H]2C)O[C@H]([C@H](C[C@H](O)[C@H](C)[C@H](O)[C@H](C)/C=C(C)/C(C)=C/C=C/C(C)=C\C#N)OC)[C@H](OP(=O)(O)O)C3(C)C)co1)N(C)C [calyculin A]
[2]; calyculin A 20 nM
  basal 5-HT uptake: fails to diminish
[2]; calyculin A 20 nM, 15 min preincubation
  blockade of anisomycin stimulation of SERT: completely blocks
[2]; calyculin A 100 nM, fostriecin higher concentrations
  5-HT uptake at higher concentrations: inhibits both basal and anisomycin-stimulated 5-HT uptake

## COc1cc(/C=C/C(=O)CC(=O)/C=C/c2ccc(O)c(OC)c2)ccc1O [curcumin]
[2]
  blockade of anisomycin-stimulated 5-HT uptake / SERT activity: lacked antagonistic activity

## C[C@@](O)(/C=C/[C@H]1CC=CC(=O)O1)[C@@H](C[C@@H](O)\C=C/C=C\C=C\CO)OP(=O)(O)O [fostriecin]
[2]
  5-HT uptake at higher concentrations: inhibit basal 5-HT uptake
  blockade of anisomycin-stimulated 5-HT uptake / SERT activity: completely blocks
SERT in RBL-2H3 cells
  SERT surface density (5-HT-displaceable [125I]RTI-55 binding): did not impact the binding
SERT in RBL-2H3 cells; concentration that completely blocks anisomycin stimulation
  blockade of NECA-induced enhancement of SERT surface density: fails to block

## YGRKKRRQRRRPP-LRK5H-amide [DT-2]
[2]; H8 0.1 μm, DT-2 1.0 μm
  blockade of NECA-induced 5-HT uptake: abolish
[2]
  blockade of 8-Br-cGMP stimulation of SERT: blocked
[2]; [8]
  blockade of anisomycin-stimulated 5-HT uptake / SERT activity: failed to attenuate
[3]; DT-2 1.0 μm
  sensitivity of 8-bromo-cGMP-induced 5-HT transport to PKG antagonist: sensitive
[3]; RN46A, DT-2 1.0 μm
  blockade of anisomycin-stimulated 5-HT uptake: failed to attenuate

## bisindolylmaleimide [BIM]
hSERT [1]; BIM 1 μM
  blockade of β-PMA downregulation: blocked
